Measurements from ChEMBL document CHEMBL1649082, “Trends in kinase selectivity: insights for target class-focused library screening” (J Med Chem, 2011).

How the values were obtained:
Set-up in all cases: scale not given: the % may be the effect or the level left
[1] = target: Cyclin-dependent kinase 7 (Homo sapiens) (UniProt P50613); assay: Inhibition of CDK7 assessed as activity at 1 uM relative to control
[2] = target: T1, Inhibitor of nuclear factor kappa-B kinase subunit alpha (Homo sapiens) (UniProt O15111); assay: Inhibition of IKKalpha assessed as activity at 1 uM relative to control
T1 sequence (whole entry): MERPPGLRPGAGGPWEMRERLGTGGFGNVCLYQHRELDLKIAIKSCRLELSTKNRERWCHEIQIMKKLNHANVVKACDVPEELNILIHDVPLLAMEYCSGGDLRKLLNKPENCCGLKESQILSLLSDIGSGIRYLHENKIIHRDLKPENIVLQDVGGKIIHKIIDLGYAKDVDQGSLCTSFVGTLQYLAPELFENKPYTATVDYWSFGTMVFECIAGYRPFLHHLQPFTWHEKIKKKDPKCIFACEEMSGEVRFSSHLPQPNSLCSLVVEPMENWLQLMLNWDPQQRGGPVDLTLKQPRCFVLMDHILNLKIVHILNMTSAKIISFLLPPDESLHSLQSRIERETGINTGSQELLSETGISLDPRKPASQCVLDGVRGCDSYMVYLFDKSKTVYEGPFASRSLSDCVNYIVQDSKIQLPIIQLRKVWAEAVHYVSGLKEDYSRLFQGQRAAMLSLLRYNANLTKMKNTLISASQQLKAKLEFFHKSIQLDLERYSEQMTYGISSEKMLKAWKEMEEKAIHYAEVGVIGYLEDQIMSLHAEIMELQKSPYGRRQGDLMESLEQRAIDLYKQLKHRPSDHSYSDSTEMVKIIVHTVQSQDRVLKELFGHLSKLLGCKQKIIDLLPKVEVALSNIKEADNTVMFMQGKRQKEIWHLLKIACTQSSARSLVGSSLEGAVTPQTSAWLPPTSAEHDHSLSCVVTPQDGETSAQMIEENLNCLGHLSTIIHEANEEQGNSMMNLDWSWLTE

[3] = Inhibition of CDC2L1 isoform 4 assessed as activity at 1 uM relative to control
[4] = Inhibition of CDC2L2 isoform 1 assessed as activity at 1 uM relative to control

Sequence of Cyclin-dependent kinase 7 (Homo sapiens) (P50613 whole entry): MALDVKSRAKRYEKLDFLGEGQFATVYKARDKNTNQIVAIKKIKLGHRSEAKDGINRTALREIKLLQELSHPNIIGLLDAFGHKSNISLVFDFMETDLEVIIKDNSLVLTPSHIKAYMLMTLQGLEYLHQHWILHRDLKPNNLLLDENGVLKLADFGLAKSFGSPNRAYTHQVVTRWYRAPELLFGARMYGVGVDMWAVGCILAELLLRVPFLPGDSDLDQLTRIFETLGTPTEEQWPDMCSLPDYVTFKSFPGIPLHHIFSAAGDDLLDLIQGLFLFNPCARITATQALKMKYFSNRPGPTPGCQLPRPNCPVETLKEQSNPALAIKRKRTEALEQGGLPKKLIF

Row | Activity [1] [%] | Activity [2] [%] | Activity [3] [%] | Activity [4] [%] | SMILES
1 | 58 | 15 | 42 | 68 | Cc1cccc(-c2cc3nc(NCCN)c4ncc(C)n4c3s2)c1
2 | 0.5 | 4.6 | 2.1 | 6.3 | Cc1cnc2c(NCCN)nc3cc(-c4cccc(CO)c4)sc3n12
